{"source": "patent US9511074B2", "about": "“Methods of treating disorders associated with protein polymerization” (UNIVERSITY OF PITTSBURGH—OF THE COMMONWEALTH SYSTEM OF …, priority 2009, dated 2016)", "key": {"[1]": {"test_system": "ATZ in the HTO/Z cell line", "assay": "Steady state levels of ATZ in the HTO/Z cell line (immunoblot of insoluble and soluble fractions)", "format": "cell-based, human", "conditions": "HTO/Z cells", "text": "(§1) Cell Lines The human epidermal HeLa cell line with doxycycline-regulated expression of ATZ (HTO/Z) has been described previously (1). HTO/M and HTO/Saar are HeLa cell lines with doxycycline-regulated expression of wild type AT and the AT Saar variant, respectively (1). A murine embryonic fibroblast cell line (MEF) with targeted disruption of Atg5 (2) was engineered for stable expression of ATZ using the previously described pRc/RSV-ATZ expression plasmid (3). A wild type MEF cell line was also engineered for stable expression of ATZ in the same way to serve as control. For experiments with CBZ, the inducible cell lines were cultured in the absence of doxycycline for at least 4 weeks for maximal expression of AT. The cells were then subcultured into separate monolayers in fresh complete growth medium and incubated for 48 hours in the absence or presence of CBZ or rapamycin (RAP). CBZ or RAP were added to the growth medium. The duration of incubation with CBZ was determined to be optimal at 48 hours based on experiments in which the duration was varied from 12 to 72 hours. Doses of CBZ were based on previous studies of its effects in cell lines (5,6). Doses of RAP were based on previous positive effects on autophagic disposal of polyglutamine-repeat proteins (7). After the incubation cells were homogenized and cell homogenates separated into insoluble and soluble fractions according to our previously established technique (8). Samples of 20 μgs each were subjected to immunoblot analysis for AT, BiP and GAPDH.\nFor immunoblot analysis to detect AT, GAPDH or LC3, cells were lysed in 50 mM Tris-HCl, 150 mM NaCl, 1% NP-40, pH 8.0. Protein levels were quantified using the BCA protein assay (Pierce Biotechnology, Rockford, Ill.). 10-50 μg samples were loaded onto 7.5% precast gels. PVDF membranes were blocked in TBS, 0.5% Tween 20 (TBST), 5% milk and then incubated with primary antibody in 5% milk TBST solution. Horseradish peroxidase anti-goat Ig or anti-mouse Ig (Jackson Labs, Bar Harbor, Me.) were used as secondary antibodies in TBST. Blots were visualized with Super Signal West Dura or West Femto from Pierce."}, "[2]": {"test_system": "wild type AT in the HTO/M cell line", "assay": "Steady state levels of wild type AT in the HTO/M cell line (immunoblot)", "format": "cell-based, human", "conditions": "FIG. 1D", "text": "as §1, with “Doses of RAP were based on previous positive effects on autophagic disposal of polyglutamine-repeat proteins (7). After the incubation cells were homogenized and cell homogenates separated into insoluble and soluble fractions according to our previously established technique (8). Samples of 20 μgs each were subjected to immunoblot analysis for AT, BiP and GAPDH.” left out\n(§2) For immunoblot analysis to detect AT, GAPDH or LC3, cells were lysed in 50 mM Tris-HCl, 150 mM NaCl, 1% NP-40, pH 8.0. Protein levels were quantified using the BCA protein assay (Pierce Biotechnology, Rockford, Ill.). […]"}, "[3]": {"test_system": "ATZ in wild-type mouse embryonic fibroblast (MEF) cell line", "assay": "ATZ levels in wild-type (Atg5+/+) MEF cell line", "format": "cell-based, murine", "text": "as §1, with “Doses of RAP were based on previous positive effects on autophagic disposal of polyglutamine-repeat proteins (7). After the incubation cells were homogenized and cell homogenates separated into insoluble and soluble fractions according to our previously established technique (8). Samples of 20 μgs each were subjected to immunoblot analysis for AT, BiP and GAPDH.” left out\nas §2"}, "[4]": {"test_system": "ATZ in Atg5 deficient cell line", "assay": "ATZ levels in autophagy-deficient (Atg5-/-) MEF cell line", "format": "cell-based, murine", "conditions": "Atg5-deficient cells", "text": "as §1, with “Doses of RAP were based on previous positive effects on autophagic disposal of polyglutamine-repeat proteins (7). After the incubation cells were homogenized and cell homogenates separated into insoluble and soluble fractions according to our previously established technique (8). Samples of 20 μgs each were subjected to immunoblot analysis for AT, BiP and GAPDH.” left out\nas §2"}, "[5]": {"test_system": "AT Saar in the HTO/Saar cell line", "assay": "Levels of AT Saar variant in the HTO/Saar cell line", "format": "cell-based, human", "conditions": "FIG. 3D", "text": "as §1, with “Doses of RAP were based on previous positive effects on autophagic disposal of polyglutamine-repeat proteins (7). After the incubation cells were homogenized and cell homogenates separated into insoluble and soluble fractions according to our previously established technique (8). Samples of 20 μgs each were subjected to immunoblot analysis for AT, BiP and GAPDH.” left out\nas §2"}, "human AT": {"test_system": "human AT", "assay": "Serum levels of human ATZ in PiZ mice by ELISA", "format": "in vivo, mouse", "conditions": "CBZ 250 mg/kg/day for 2 weeks", "procedure": "For ELISA on mouse serum specimens, Nunc Maxisorp plates were first coated with goat anti-human AT (Bethyl), then blocked in PBS-Tween20 containing 5% nonfat milk. Serum samples were loaded into the wells in 1:20,000 dilution using purified human AT serial dilutions (1.56 to 100 ng/ml) as a standard. Rabbit-anti human AT (Dako) was used as […], and goat anti-rabbit IgG-HRP (Dako) a secondary antibody. Protein levels were detected with OPD (Sigma)."}, "PiZ mice": {"test_system": "PiZ mice", "assay": "Hepatic fibrosis in PiZ mice (Sirius Red, hepatic hydroxyproline)", "format": "in vivo, mouse", "text": "Transgenic Mice PiZ mice that have been bred into the C57/BL6 background have been described previously (1). For the second and third series of experiments with CBZ we used PiZ mice that were re-derived onto the FVB/N background for a move into a new animal facility. The transgene that was used to generate the PiZ mouse is a genomic fragment of DNA that contains the coding regions of the ATZ gene together with introns and ˜2 kilobases of upstream and downstream flanking regions (10). […] In this perspective it is not an exact phenocopy of the classical form of AT deficiency. In particular it cannot be a model for the loss-of-function mechanisms associated with the classical form of AT deficiency. It is known to have abundant expression of ATZ in hepatocytes and other cell types that express ATZ in humans (11). In the liver there are abundant ATZ-containing intrahepatocytic globules and inflammation that is characteristic of what is seen in the human liver (11,12). […] Taken together, these observations indicate that the PiZ mouse is an appropriate model for the gain-of-toxic function mechanism that is responsible for liver damage in the classical form of AT deficiency. Indeed, the fact that these mice are endowed with endogenous AT function and therein normal levels of AT in the serum and body fluids make them an even more ‘pure’ model for liver damage by gain-of-toxic function. PiZ×GFP-LC3 mice, which generated green fluorescent autophagosomes, have been described previously (2). PiZ×IKKβ.hep were generated by mating of PiZ to IKKβ.hep, which has conditional hepatocyte-specific disruption of NF.B activation (M. Karin, 17). There is increased injury in the liver of these mice as evidenced by the hepatic hydroxyproline content, 153.3% of that in the PiZ mouse (FIG. 7).\nHistology Sections of liver tissue were stained with hematoxylin and eosin, PAS, PAS after diastase treatment, TUNEL, PCNA, Ki67 and Sirius Red using standard techniques (18). Previous methods for staining with antibody to smooth muscle actin were used (19). Each was examined by the pathologist (GM) who was completely blinded to the experimental protocol. Sections of liver tissue were also stained with goat anti-human AT followed by donkey anti-goat Cy3 to detect AT-containing intracellular globules. Finally sections of liver tissue were stained with anti-GFP to optimize the detection of green fluorescent autophagosomes. The number of inflammatory nodules, AT-containing globules and autophagosomes were each quantified blindly by counting cells in 6 microscopic fields of 10 different sections for each liver. The number of nuclei, as determined by Hoechst staining, was used to exclude the possibility that different numbers of cells were counted in liver sections from mice treated with CBZ as compared to controls. Hepatic hydroxyproline concentration was determined by a well-established protocol (20,21).\nTherapeutic regimens For the initial series of experiments in mice in vivo, the dose of 250 mg/kg/day for CBZ was based on previous studies of its biological effects in mice (22,23). […] CBZ was administered in DMSO by gavage once per day. Control mice were given an equivalent volume of DMSO by gavage. In a second series of experiments, doses of 200, 100 and 50 mg/kg/day of CBZ were administered for 6 weeks. The dose and route of administration of RAP, 2 mg/kg/day by intraperitoneal injection for 2 weeks, was based on previous studies that have shown activation of hepatic autophagy (24)."}, "[6]": {"conditions": "48 hours incubation, immunoblot"}}, "data": [{"smiles": "NC(=O)N1c2ccccc2C=Cc2ccccc21", "note": "[CBZ, 5H-dibenz [b,f]azepine-5-carboxamide]", "values": [{"measurement": "minimal effective dose on ATZ levels", "setting": "[1]", "value": 3, "unit": "µM"}, {"measurement": "steady-state levels of ATZ, insoluble fraction", "setting": "[1]; [6]", "value": "marked decrease"}, {"measurement": "steady-state levels of ATZ, soluble fraction", "setting": "[1]; [6]", "value": "marked decrease"}, {"measurement": "wild-type AT levels", "setting": "[2]", "value": "did not affect"}, {"measurement": "levels of insoluble ATZ", "setting": "[3]; wild-type MEF cell line", "value": "decrease"}, {"measurement": "levels of soluble ATZ", "setting": "[3]; wild-type MEF cells", "value": "decrease"}, {"measurement": "levels of soluble ATZ", "setting": "[4]", "value": "decrease"}, {"measurement": "levels of AT Saar (soluble fraction)", "setting": "[5]", "value": "degraded by CBZ in a manner almost identical to that of ATZ"}, {"measurement": "serum concentrations of human AT", "setting": "human AT", "value": "not significantly affected"}, {"measurement": "hepatic hydroxyproline concentrations", "setting": "PiZ mice; 200 mg kg-1 day-1 for 6 weeks", "value": "decreased"}, {"measurement": "hepatic fibrosis (Sirius red)", "setting": "PiZ mice; 250 mg kg-1 for 2 weeks, FIG. 4E", "value": "marked decrease"}, {"measurement": "decrease of hepatic hydroxyproline content", "setting": "PiZ mice; PiZ mice vs untreated PiZ, FIG. 7", "value": 46.7, "unit": "%"}, {"measurement": "lowest effective dose (hepatic hydroxyproline)", "setting": "PiZ mice; PiZ mice, 6 weeks", "value": 200, "unit": "mg/kg/day"}, {"measurement": "hepatic hydroxyproline concentration", "setting": "PiZ mice; PiZ mice, mean±SD, control 2.27±1.02, P=0.0074", "value": "1.21 ± 0.7", "unit": "µg/mg dry weight"}]}]}
